The text below walks through data of patent US20230220047A1, “PEPTIDES FOR TREATMENT OF SEPSIS AND CANCER” (NORWEGIAN UNIVERSITY OF SCIENCE AND TECHNOLOGY (NTNU), priority 2020, published 2023).

The subject of assay [1] is ANBL-6 multiple myeloma cells. As to the kind of experiment: CellTiter-Glo cell viability assay, ANBL-6. It is filed as cell-based. The method, then:
Minor effects on the proliferation of the IH-1 and RPMI 8226 cell lines are seen. Cells were seeded at the level shown (left-hand bar of each set) then incubated in medium containing water, 10 μM penetratin or 10 μM P7-A4-Pen for 48 hr (except for INA-6 cells, which were incubated with 12.5 μM penetratin or 12.5 μM P7-A4-Pen). The number of viable cells was detected based on quantitation of ATP by luminescent signal in correlation to a standard curve prepared for each cell line. Results are based on 3-5 biological replicates for each condition, error bars show standard deviation of mean.
Cells were seeded and then incubated in growth medium alone or supplemented with water, DMSO, 15 μM penetratin or 15 μM investigational peptide. The growth medium only and H2O—, DMSO- and penetratin-supplemented cultures constituted controls.
The solid horizontal lines show the amount of cells originally seeded. In (A) ANBL-6 cells were seeded at a level of 10,000 cells/well, then incubated in medium supplemented with water, the control peptide C3A-Pen, P7-Pen, P7-A4-Pen, P7-N4-Pen or P7-K2-Pen for 48 hours. The peptides were included at concentrations of 5, 10, 12.5, 15, 20 or 30 μM. Cells were counted at 48 hours. In (B), ANBL-6 cells were seeded at a level of 5000 cells/well, then incubated in medium supplemented with water, P6-Pen, P-P6-Pen, P7-D4-Pen or P7-A4-Pen for 48 hours. Peptides were included at concentrations of 5, 10 or 20 μM. Cells were counted at 48 hours. […] Results are based on 3 biological replicates, error bars show standard deviation of mean.
(§1) Multiple myeloma cells JJN-3 (DSMZ (Germany) no. ACC 541), ANBL-6 (Cellosaurus accession number CVCL_5425, obtained from Dr Diane Jelinek, Mayo Clinic, Rochester, Minn.), INA-6 (Cellosaurus accession number CVCL_5209, obtained from Dr M. Gramatzki, University of Erlangen-Nurnberg, Erlangen, Germany), RPMI-8226 (ATCC CCL-155), and IH-1 (Cellosaurus accession number CVCL_WZ44, established from the pleural effusion of a myeloma patient by Myeloma research group, IKOM, NTNU, Trondheim, Norway) were grown in RPMI-1640 (Sigma-Aldrich Norway, Oslo, Norway) supplemented with 100 nM penicillin/streptomycin and 10% FCS, and for ANBL-6, IH-1 and INA-6 cells 2 ng/ml recombinant IL-6 (Gibco, Thermo Fisher Scientific, Waltham, Mass., USA). Murine multiple myeloma Vk*MYC cells were obtained from M.D. Leif Bergsagel (Mayo Clinic, Richester, Minn., USA) and cultured in RPMI-1640 supplemented with 2% human serum (B^+, The blood bank, St Olav's Hospital, Trondheim, Norway), 100 nM penicillin/streptomycin, L-Glutamine (2 mM) and recombinant IL-6 (1 ng/ml). HEK293T (ATCC CRL-3216) were cultured in DMEM with 10% FCS. THP-1 TRAM knockout (KO) and TLR4 KO cell lines, and matching lentivirally transduced control cell lines, were differentiated in the same way as wild type (WT) THP-1. TRAM KO THP-1 cell line is described in Yurchenko et al. (supra).
To evaluate the potential impact of the P7 peptide on proliferation of tumour cells of lymphoid origin, we performed a CellTiter-Glo Luminescent Cell Viability Assay to address proliferation of several multiple myeloma (MM) cell lines. For the assay, cells were incubated for 48 h in respective media containing either solvent (water), 10 μM control peptide (Pen) or the SLAMF1-derived peptide P7-A4-Pen for 48 h (FIG. 32) (with the exception of the INA-6 cells which were incubated with 12.5 μM control peptide or P7-A4-Pen). […] This effect could be mediated by P7-A4-Pen-induced inhibition of signalling pathways that are crucial for driving proliferation and/or survival of MM tumour cells.

The test system of assay [2] is Jurkat cells. As to the kind of experiment: Proliferation of Jurkat T cell leukaemia cells. It is filed as cell-based, human. Particulars: 15 μM or 20 μM, 48 h. The method, then:
Jurkat cells were seeded at 5000 cells/well (as indicated by dotted line) and incubated in medium supplemented with water, penetratin, P7-Pen or P7-N4-Pen. Peptides were included at 15 μM (A) or 20 μM (B). Cells were incubated for 48 hours then counted. […] Results are based on 3 biological replicates, error bars show standard deviation of mean.
(§2) SW480 (ATCC CCL-228) and Jurkat (ATCC Clone E6-1; TIB-152) cells were cultured in RPMI 1640 (Sigma-Aldrich, Schnelldorf, Germany) supplemented with 10% heat-inactivated FCS, penicillin/streptomycin (Life Technologies) and 20 mM L-Glutamine. THP-1 cells (ATCC TIB-202) were cultured in RPMI-1640 (high-glucose, ATCC) supplemented with 10% heat inactivated foetal calf serum (FCS), 100 nM penicillin/streptomycin and 5 μM β-mercaptoethanol (Sigma). THP-1 cells were differentiated with 60 ng/ml phorbol 12-myristate 13-acetate (PMA, Sigma) for 72 h, followed by 24 or 48 h in medium without PMA.
(§3) The peptides were tested against the SW480 cell line in the presence and absence of LPS.

Assay [3] has as its system SW480 cells. As to the kind of experiment: Proliferation of SW480 colon cancer cells. It is filed as cell-based, human. To be noted: 15 μM, 48 h, with or without LPS 100 ng/ml. The method, then: SW480 cells were seeded and incubated in medium alone or supplemented with water, 15 μM penetratin, 15 μM P7-Pen or 15 μM P7-N4-Pen. Under each condition cells were incubated both without LPS and with 100 ng/ml LPS. Cells were incubated for 48 hours then counted. […] The presence of LPS made no difference to the effect of the peptides on proliferation. Results are based on 3 biological replicates, error bars show standard deviation of mean.
as §2, §3

Assay [4] concerns JJN-3 multiple myeloma cells. In kind it is cell-based, human. To be noted: JJN-3, 4 μM peptide.
Description: Minor effects on the proliferation of the IH-1 and RPMI 8226 cell lines are seen. […] The number of viable cells was detected based on quantitation of ATP by luminescent signal in correlation to a standard curve prepared for each cell line. Results are based on 3-5 biological replicates for each condition, error bars show standard deviation of mean.
as §1
To evaluate the potential impact of the P7 peptide on proliferation of tumour cells of lymphoid origin, we performed a CellTiter-Glo Luminescent Cell Viability Assay to address proliferation of several multiple myeloma (MM) cell lines. […]

Assay [5] relates to THP-1 cells. As to the kind of experiment: Viability of acute myeloid leukaemia cell line THP-1. It is filed as cell-based, human. Particulars: 5-30 μM, 48 h. The method, then:
THP-1 cells were seeded in medium at 10,000 cells/well, as indicated by the dotted line. Cells were incubated for 48 hours in medium supplemented with water, C3A-Pen, P7-Pen, P7-A4-Pen or P7-N4-Pen. The peptides were included at concentrations ranging from 5-30 μM. At 48 hours cells were counted. […] The results with other peptides were less clear-cut. Results are based on 3 biological replicates, error bars show standard deviation of mean.
as §3

The subject of assay [6] is primary Vk*MYC multiple myeloma cells. Description: Primary Vk*MYC multiple myeloma cells. It is filed as cell-based, mouse. To be noted: 7.5 or 15 μM, 48 h. The method, then: Isolated primary cells were seeded then incubated for 48 hours in growth medium supplemented with water, penetratin, P7-Pen, P7-A4-Pen or P7-N4-Pen, then counted. Peptides were included at concentrations of 7.5 or 15 μM. […] Results are based on 3 biological replicates, error bars show standard deviation of mean.
as §1
Primary multiple myeloma cells were isolated from Vk*Myc mice and provided by the Multiple Myeloma Research Group, IKOM, NTNU. The peptides P7-Pen, P7-N4-Pen and P7-A4-Pen were applied to the cultured primary cells and effect of the peptides on cell growth analysed as previously.

Entries after “also recorded” stand apart in the source; their conditions may differ.

For “Ac-ITVNASVTLTGRQIKIWFQNRRMKWKK-NH2 [Peptide P7-N4-Pen]”, in assay [1] (15 μM), the “effect on proliferation of ANBL-6 cells” value is listed as “anti-proliferative effect”. Moreover, the “anti-proliferative activity over a concentration series” value in assay [1] (5, 10, 12.5, 15, 20 and 30 μM or 5, 10 and 20 μM, 48 h) is listed as “clear concentration-dependent effect”. In assay [2], the “effect on proliferation of Jurkat cells” value was “modest but clear anti-proliferative effect”. For the same substance, the “effect on proliferation of SW480 cells” value in assay [3] is on record as “a degree of anti-proliferative effect”. For the same substance, the “combination effect with melphalan at low melphalan concentrations” value in assay [4] is on record as “synergistic effect”. The “effect on THP-1 cell number” value in assay [5] is listed as “clear dose-dependent cytotoxic effect; also recorded: anti-proliferative effect”. For the same substance, the “effect on primary multiple myeloma cells” value in assay [6] was “strong cytotoxic effect”.
